{"source": "paper PMC4433340", "about": "(PLoS Neglected Tropical Diseases, 2015)", "tested_on": "NF-κB p65 in T. cruzi-infected EA.hy926 cells", "experiment": "Nuclear p65 localization by confocal microscopy", "type": "cell-based, human", "settings": "5 μM simvastatin or 20 μM benznidazole before T. cruzi 1 hour", "method": "2x10^4 EA.hy926 cells were seeded in Lab-Tek II Chamber Slides^TM for 12 hours. Cells were fixed in 3.7% formaldehyde–0.1 M phosphate buffer (pH 7.3) for 10 min. They were then washed with cytoskeletal buffer followed by permeabilization for 5 min with Triton-X100 0.5%. Cells were blocked with 3% bovine serum albumin for 1 hour. […] The samples were washed with PBS and incubated with anti-rabbit IgG conjugated with fluorescein (1:100) from Sigma-Aldrich for 1 hour. Finally, nuclei were stained with DAPI for 5 minutes and mounted in Dako fluorescence mounting media. The cells were photographed and ten pictures per well were obtained; images were analyzed using ImageJ software (ImageJ 1.47v).", "data": [{"smiles": "O=C(Cn1ccnc1[N+](=O)[O-])NCc1ccccc1", "note": "[Benznidazole]", "values": [{"measurement": "Nuclear p65 localization", "value": "decreased nuclear p65 localization"}]}]}
